Source: patent publication US9481734B2, “Immunoglobulin cleavage fragments and disease indicators and compositions for detecting and binding such” (Janssen Biotech, Inc., priority 2007, dated 2016)
One block for each molecule: values may come before it. No end group written: not given here. *: point of attachment. Biotin = O=C1N[C@H]2[C@H](CS[C@H]2CCCCC(=O)*)N1

Key:
[1] = test system: human IgG1; assay: Proteinase digestion of purified IgG1, Agilent biosizing; assay type: biochemical; settings: for disappearance of intact IgG (160,000 Da): Mab1, 1% w/w enzyme, 37° C.
Sequence of human IgG1 (P01857 99-224 limits assumed): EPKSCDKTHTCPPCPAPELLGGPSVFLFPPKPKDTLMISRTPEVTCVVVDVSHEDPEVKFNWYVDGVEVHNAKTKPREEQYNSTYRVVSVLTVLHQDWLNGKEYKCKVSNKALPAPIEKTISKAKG
Experimental: A purified monoclonal antibody comprising a human IgG heavy chain was contacted with the proteases described and sampling was conducted over various durations of contact. Fragmentation in the samples was evaluated using the Agilent microfluidics “lab-on-a-chip” technology for in vitro biosizing (Goetz H et al. Biochemical and Biophysical Methods 60; 281-293, 2004).
Proteinase digestions of purified IgGs were carried out at pH 7.5 in phosphate-buffered saline (PBS) or, for the metalloproteinases, in Tris-buffered saline buffer at 37° C. Calcium chloride was included in the metalloproteinase reactions at 1 mM for MMP-12 and 10 mM for MMP-3; otherwise no additives were used. Antibody concentrations were typically 1 or 2 mg/mL and reactions were initiated by addition of enzyme to a 1% (w/w) ratio to IgG. Aliquots (10-20 μL) were removed at indicated times and the reactions were stopped either by adjustment to 20 mM EDTA (metalloproteinase incubations) or to 1 mM iodoacetamide (cysteine proteinases) or by rapid freezing.
The major proteolytic cleavage positions in the IgG1 hinge were identified for enzyme-generated fragments by N-terminal sequencing of the purified Fc fragment (MMP-3 and MMP-12) and/or high resolution mass spectrometric analyses of the purified Fab (neutrophil elastase, plasmin) and F(ab′)2 (cathepsin G, glutamyl endopeptidase and IdeS) fragments. Fragmentation was evaluated using the Agilent microfluidics “lab-on-a-chip” technology.

[2] = test system: S. aureus (ATCC 29213); assay: Wiffle ball (tissue cage) S. aureus infection model in rabbits; assay type: in vivo; settings: day 2 after inoculation with 6.2 log 10 CFUs, immunized rabbits
Excerpt: In order to test the capacity of cleavage site specific antibodies to rescue cleaved IgGs in vivo, a model for bacterial infection employing a “tissue cage” (Fernandez J A, et. al. (1997) Antimicrob. Agents Chemother. 43(3):667-671) was adopted. In this system, a wiffle ball is surgically implanted subcutaneously in the dorsal cervical area. The model allows the infectious agents to be localized within an easily accessible fluid compartment, a tissue pouch, and has been used to assess the efficacy of antibiotics against bacteria.
In the final phase of the study, the immunized and non-immunized rabbits were inoculated with 6.2 log 10 colony forming units (CFUs) of S. aureus (ATCC 29213) directly into the wiffle-ball compartments.
The bacterial counts and test subject viability were monitored over the course of two weeks for bacterial counts and survival. The data shown in FIG. 13 indicate that during the first week of the study, the average bacterial counts for control animals were several logs higher than cleavage site specific vaccinated animals. For example, on day 2 the control had 7.2 log10 CFU/ml wiffle ball fluid while the immunized group had 5.2 log10 CFU/ml wiffle ball fluid.

[3] = test system: Fab fragment of the 2095-2 antibody; settings: Biacore, 25° C., 1:1 (Langmuir) model
Experimental: The specificity of binding was further examined using a Fab fragment of the 2095-2 antibody using a surface plasmon resonance platform (Biacore). Briefly, the Fab was immobilized to a CM5 sensor chip in a Biacore 2000 at three different surface densities (8500, 1650, and 350 RU) using standard NHS/EDC coupling. The running buffer contained 10 mM HEPES pH 7.4, 150 mM NaCl, and 0.01% Tween-20. Data were collected at 25° C.
Three N-terminally biotinylated peptides were tested for binding of to the immobilized Fab: WT, representing the expected sequence of a peptide fragment from a human IgG1 cleavage site after cleavage by the Streptococcus pyogenes IdeS protease; E233A, representing a variant of having a single alanine substitution at the amino acid residue four positions upstream of the C-terminus; and L234A, a variant having a single alanine substitution at the amino acid residue three positions upstream from the C-terminus. The peptides were modified by substituting serine for cysteine to make them compatible with the coupling chemistry and preserve the monomeric structure.
Peptides Wild type and E233A were tested in a 3-fold dilution series using 588 nM and 2.9 uM as the highest concentration, respectively. Peptide L234A was tested at 14.7 uM as the highest concentration in a 2-fold dilution series. Each peptide concentration series was tested in triplicate over the three different density Fab surfaces. The association and dissociation were monitored for 1 minute. Surfaces were regenerated with a 12 second injection of 1/500 dilution of phosphoric acid.

[4] = test system: platelet surface IIb/III3 receptors; assay: Platelet aggregation assay; assay type: cell-based; settings: 5 μM adenosine diphosphate (ADP), compared with intact c7E3 IgG
Experimental: c7E3 inhibits platelet aggregation by binding to platelet surface IIb/III3 receptors—thereby blocking the ability of fibrinogen to bind to the receptors on activated platelets and to clump them together. The respective inhibitory profiles of intact and single-cleaved c7E3 IgG were tested in a platelet aggregation assay. Platelet aggregation is measured as an increase of light transmission through a platelet suspension after activation with a physiological agonist. The inhibition is compared to control aggregation to 5 μM adenosine diphosphate (ADP). The percent inhibition was calculated as: control aggregation−test aggregation×100%, divided by control aggregation.

[5] = test system: platelets; assay: Restoration of function study in dogs, platelet counts; assay type: in vivo; settings: c7E3 variants 0.05 mg/kg, mAb 2095-2 0.5 mg/kg after 10 min delay, groups of 3 animals
Experimental: To be consistent with the prior experiments, the variants of c7E3 were all administered at the 0.05 mg/kg dose. The unique aspect of the experiment (groups 6 and 7) involves the infusion of the first targeting mAb followed by the cleavage site specific mAb after a 10 minute delay. The cleavage site specific IdeS cleavage site mAb, 2095-2, was administered at 0.5 mg/kg; 10-fold higher than the dose used for all of the c7E3 variants. The higher dose was chosen in order to maximize the complexation of cleavage site specific mAb with platelet-bound c7E3 variants. All mAbs were delivered by slow infusion over a 20 minute period. Platelet counts were monitored over a 96-hour period. The platelet counts were normalized to the pre-dose count within each animal for clarity of presentation and to minimize the normal variability in numerical platelet counts in these small 3-animal groups.

[6] = test system: platelets; assay: Test infusions of c7E3 IgG in dogs, platelet depletion; assay type: in vivo; settings: 0.05 mg/kg dose, calculated
Excerpt: First, the c7E3 antibody antigen binding and platelet depletion parameters were established in dogs.

[7] = test system: platelets; assay: Platelet counts in dogs, intact versus single-cleaved c7E3 IgG; assay type: in vivo; settings: 0.05 mg/kg
Experimental: c7E3 IgG and c7E3 IgG single-cleaved by IdeS protease were also compared in vivo. Three groups of 5 animals received either saline control, intact c7E3 IgG (0.05 mg/kg) or c7E3 single-cleaved IgG (0.05 mg/kg). Platelet counts were monitored at baseline and at 2, 24, 48, 72 and 96 hours post-administration. Limiting the study to 5 days minimized the likelihood of anti-c7E3 immune responses that might confound the interpretation of the results. The results are presented in FIG. 3 as the mean platelet count±SD for each animal group at each time point. The extent of the error bars connotes the normal variability of platelet counts in different animals (for example, the predose counts for the 5 animals in the single-cleaved IgG treatment group were 175,000, 355,000, 305,000, 276,000 and 334,000 per μL, respectively).

Molecule: Glutamyl endopeptidase I (Glu V8 protease): Staph. aureus serine endopeptidase
disappearance of intact IgG (160,000 Da) [1]: several hours

Major Product ([1]; human IgG1, None denotes no detectable cleavage in 24 hours): None
Molecule: Tryptase: human serine endopeptidase

Molecule: C-T-S-P-P-S-P-S-P-A-P-E (CTSPPSPSPAPE; also: conjugated to KLH) [GluV8-cleavage site peptide analogue]
bacterial count [2]: 5.2 log10 CFU/ml wiffle ball fluid

Molecule: Biotin-TSPPSPAPEALG [L234A]
ka(M-1s-1) × 10^−5 [3]: 1.24 ± 0.01 M-1s-1 × 10^−5
kd [3]: 1.03 ± 0.01 s⁻¹

disappearance of intact IgG (160,000 Da) [1]: several hours
Molecule: Stromelysin (MMP-3): human metalloendopeptidase

Molecule: Biotin-TSPPSPAPELLG [Wt]
ka(M-1s-1) × 10^−5 [3]: 5.22 ± 0.04 M-1s-1 × 10^−5
kd [3]: 0.00443 ± 0.02 s⁻¹

Molecule: c7E3 sc IgG: c7E3 IgG single-cleaved by IdeS protease
binding/inhibition of platelet aggregation after single lower hinge cleavage [4]: no loss of binding/inhibition
effect on platelet numbers [5]: without effect on platelet numbers

Molecule: Biotin-TSPPSPAPALLG [E233A]
ka(M-1s-1) × 10^−5 [3]: 7.29 ± 0.03 M-1s-1 × 10^−5
kd [3]: 0.1070 ± 0.04 s⁻¹

B1: c7E3 IgG: anti-platelet integrin (αIIbβIIIa) murine-human IgG1 chimeric antibody (antibody, chains of the INN, looked up, V domains shown)
VH: EVQLQQSGTVLARPGASVKMSCEASGYTFTNYWMHWVKQRPGQGLEWIGAIYPGNSDTSYIQKFKGKAKLTAVTSTTSVYMELSSLTNEDSAVYYCTLYDGYYVFAYWGQGTLVTVSA
VL: EIVLTQSPVTLSVTPGDSVSLSCRASRDISNNLHWFQQTSHESPRLLIKYASQSMSGIPSRFSGSGSGTDFTLSINSVETEDFGMYFCQQTNSWPYTFGGGTKLEIK
modifications: IgG1
notes: anti-platelet integrin (αIIbβIIIa) murine-human IgG1 chimeric antibody
αIIbβ3 receptor blockade [6]: about 5%
nadir of platelet numbers [7]: 24 h
recovery of platelet counts ([7]; by 96 hours): approximately 50 % of the pre-dose level
effect on platelet numbers ([7]; groups of 5 animals, 96-hour monitoring): substantial decrease of platelet numbers

B2: c7E3 F(ab′)2: F(ab′)2 of c7E3 prepared using the bacterial enzyme IdeS (antibody, chains of the INN, looked up, V domains shown)
VH: EVQLQQSGTVLARPGASVKMSCEASGYTFTNYWMHWVKQRPGQGLEWIGAIYPGNSDTSYIQKFKGKAKLTAVTSTTSVYMELSSLTNEDSAVYYCTLYDGYYVFAYWGQGTLVTVSA
VL: EIVLTQSPVTLSVTPGDSVSLSCRASRDISNNLHWFQQTSHESPRLLIKYASQSMSGIPSRFSGSGSGTDFTLSINSVETEDFGMYFCQQTNSWPYTFGGGTKLEIK
modifications: F(ab')2 IdeS-generated
notes: F(ab′)2 of c7E3 prepared using the bacterial enzyme IdeS
effect on platelet numbers [5]: without effect on platelet numbers
